Test results reported in patent US20100004257A1 (University of South Floria, priority 2007, published 2010).
Like-named read-outs stand apart in the source and are kept apart here.

How the values were obtained:
H441 cells [1] = test: MTT assay after 120 hours, IC50; format: cell-based; conditions: Homo sapiens, NCI-H441, 120 h
Description: (§1) Cell lines and cell culture. Human lung cancer cell lines were maintained in RPMI 1640 plus 5% bovine calf serum (BCS). H3255 cells were provided by Dr. Pasi Janne (Dana-Farber, Boston, Mass.) and grown in ACL-4 medium (12). HCC827 cells were provided by Dr. Jon Kurie (M. D. Anderson, Houston, Tex.). PC9 cells were provided by Dr. Matthew Lazzara (Massachusetts Institute of Technology, Boston, Mass.). […]. Gefitinib was provided by AstraZeneca (Wilmington, Del.) and dasatinib by Bristol-Myers Squibb Oncology (Princeton, N.J.). For cell transfection experiments, 2×10^6 HEK293 cells in a 6-cm dish maintained in DMEM/10% BCS were transfected with 1 Ag plasmid DNA for 3 hours using LipofectAMINE 2000 (Invitrogen, Carlsbad, Calif.) and then allowed to go 24 hours before being treated with inhibitors.
(§2) Cytotoxicity and apoptosis assays. Cytotoxicity assays [3-(4,5-dimethylthiazol-2-yl)-2,5-diphenyltetrazolium bromide] were done according to the manufacturer's recommendations (Roche, Indianapolis, Ind.). […] Data presented represent three separate experiments with eight data points per concentration per experiment. Apoptosis [PharMingen (San Diego, Calif.) Apo-BrdU kit] and cell cycle changes (propidium iodide staining and flow cytometry) were assayed as before (13). Data are expressed as mean±SD.

H226 cells = test: MTT assay after 120 hours, IC50; format: cell-based; conditions: Homo sapiens, NCI-H226, 120 h
Description: as §1, §2

H460 cells = test: MTT assay after 120 hours, IC50; format: cell-based; conditions: Homo sapiens, NCI-H460, 120 h
Description: as §1, §2

H23 cells = test: MTT assay after 120 hours, IC50; format: cell-based; conditions: Homo sapiens, NCI-H23, 120 h
Description: as §1, §2

H2122 cells = test: MTT assay after 120 hours, IC50; format: cell-based; conditions: Homo sapiens, NCI-H2122, 120 h
Description: as §1, §2

H441 cells [2] = test: Combination effect in cell viability assays, median dose effect method; format: cell-based, Human; conditions: dose range used
Description: Combination effects were evaluated by median dose effect method.

A549 cells [3] = test: MTT assay after 120 hours, IC50; format: cell-based; conditions: Homo sapiens, A549, 120 h, read-out: EGFR TKI IC50 (Nm)
Description: Cell lines and cell culture. […] Gefitinib was provided by AstraZeneca (Wilmington, Del.) and dasatinib by Bristol-Myers Squibb Oncology (Princeton, N.J.).
Cytotoxicity and apoptosis assays. Cytotoxicity assays [3-(4,5-dimethylthiazol-2-yl)-2,5-diphenyltetrazolium bromide] were done according to the manufacturer's recommendations (Roche, Indianapolis, Ind.). Cells (5×10^3) in medium with 5% BCS were placed into single wells in a 96-well plate and exposed to indicated agents, and viability was assessed after 72 hours. Data presented represent three separate experiments with eight data points per concentration per experiment. […] Data are expressed as mean±SD.

H322 cells = test: MTT assay after 120 hours, IC50; format: cell-based, Human; conditions: for IC50: Homo sapiens, NCI-H322, 120 h
Description: as §1, §2

H157 cells = test: MTT assay after 120 hours, IC50; format: cell-based, Human; conditions: for IC50: Homo sapiens, NCI-H157, 120 h
Description: as §1, §2

H292 cells = test: MTT assay after 120 hours, IC50; format: cell-based, Human; conditions: for IC50: Homo sapiens, NCI-H292, 120 h
Description: as §1, §2

H358 cells [4] = test: MTT assay after 120 hours, IC50; format: cell-based, Human; conditions: for IC50: Homo sapiens, NCI-H358, 120 h
Description: as §1, §2

H1648 cells = test: MTT assay after 120 hours, IC50; format: cell-based, Human; conditions: for IC50: Homo sapiens, NCI-H1648, 120 h
Description: as §1, §2

H1299 cells = test: MTT assay after 120 hours, IC50; format: cell-based, Human; conditions: for IC50: Homo sapiens, NCI-H1299, 120 h
Description: as §1, §2

[5] = tested on: lung cancer cells with EGFR mutation that are resistant to EGFR TKI; test: Apoptosis and cell cycle in cells with acquired resistance to erlotinib; format: cell-based, Human; conditions: EGFR mutant cells resistant to EGFR TKI
[6] = tested on: imatinib-resistant BCR-ABL mutants; conditions: number of mutants / mutants tested; cited from earlier work
[7] = tested on: pTyr416 Src (pSrc) family in PC9 cells; test: Western analysis of Src phosphorylation status; format: cell-based, Human; conditions: 24 hours
[8] = tested on: pAkt, pSTAT3, cleaved PARP in H1650 cells; test: Western analysis of pAkt, pSTAT3 and cleaved PARP; format: cell-based, Human; conditions: 24 hours; for pSTAT3: H1650, any growth conditions
H358 cells [9] = conditions: 24 hours, gefitinib 1 μmol/L, dasatinib 500 nmol/L, or the combination
[10] = tested on: pAkt, cleaved PARP in PC9 cells; test: Western analysis of pAkt, pSTAT3 and cleaved PARP; format: cell-based, Human; conditions: 24 hours; for PARP cleavage: gefitinib at 50 nmol/L, dasatinib at increasing concentrations
[11] = tested on: pTyr416 Src (pSrc) family in H1975 cells; test: Western analysis of Src phosphorylation status; format: cell-based, Human; conditions: 24 hours, dasatinib at 50 nmol/L
A549 cells [12] = test: Cell cycle profile and cyclin D/p27 Western analysis; format: cell-based, Human; conditions: 24 hours, gefitinib 1 μmol/L, dasatinib 500 nmol/L; for cell cycle profile: FIG. 12; for cyclin D3 and p27 proteins: FIG. 13
[13] = tested on: pAkt, pSTAT3, cleaved PARP in H1975 cells; test: Western analysis of pAkt, pSTAT3 and cleaved PARP; format: cell-based, Human; conditions: 24 hours
[14] = tested on: pTyr416 Src (pSrc) family in H1650 cells; test: Western analysis of Src phosphorylation status; format: cell-based, Human
[15] = dosing for CML; ODAC briefing document; cited from earlier work
[16] = tested on: pFAK, pSTAT3, pAkt, pERK in A549 cells; test: Western analysis of pFAK, pSTAT3, pAkt, pERK; format: cell-based, Human; conditions: 500 nmol/L, 3 hours
[17] = tested on: pAkt, pSTAT3, cleaved PARP in H3255 cells; test: Western analysis of pAkt, pSTAT3 and cleaved PARP; format: cell-based, Human; conditions: increasing concentrations, 24 hours
H1650 cells = test: Cell viability, dasatinib compared with gefitinib, 72 hours; format: cell-based, Human; conditions: H1650 grown in 5% BCS, FIG. 6
Description: FIG. 6. presents a series of four graphs, with each graph representative of a different cell line as indicated at the top of the graph.
Cytotoxicity and apoptosis assays. Cytotoxicity assays [3-(4,5-dimethylthiazol-2-yl)-2,5-diphenyltetrazolium bromide] were done according to the manufacturer's recommendations (Roche, Indianapolis, Ind.). Cells (5×10^3) in medium with 5% BCS were placed into single wells in a 96-well plate and exposed to indicated agents, and viability was assessed after 72 hours. Data presented represent three separate experiments with eight data points per concentration per experiment. Apoptosis [PharMingen (San Diego, Calif.) Apo-BrdU kit] and cell cycle changes (propidium iodide staining and flow cytometry) were assayed as before (13). Data are expressed as mean±SD.

[18] = H1650 grown in 5% BCS, dasatinib at 50 nmol/L
[19] = H1650 in low serum with exogenous EGF, 50 nmol/L

## C#Cc1cccc(Nc2ncnc3cc(OCCOC)c(OCCOC)cc23)c1 [erlotinib]
H441 cells [1]; read-out: EGFR TKI IC50 (Nm)
  IC50: > 2000 nM
H226 cells; read-out: EGFR TKI IC50 (Nm)
  IC50: > 2000 nM
H460 cells; read-out: EGFR TKI IC50 (Nm)
  IC50: > 2000 nM
H23 cells; read-out: EGFR TKI IC50 (Nm)
  IC50: > 2000 nM
H2122 cells; read-out: EGFR TKI IC50 (Nm)
  IC50: 748 nM
H441 cells [2]
  effect on cell viability: no effect
A549 cells [3]
  IC50: > 2000 nM
H322 cells; read-out: EGFR TKI IC50 (Nm)
  IC50: 135 nM
H322 cells; erlotinib, H322, BAC, EGFR WT, MTT 120 hours
  EGFR TKI Sensitivity: S (EGFR TKI Sensitivity Definition: Reported IC50 < or = 1 μM)
H157 cells; read-out: EGFR TKI IC50 (Nm)
  IC50: > 2000 nM
H292 cells; read-out: EGFR TKI IC50 (Nm)
  IC50: 63.4 nM
H292 cells; erlotinib, H292, Squamous, EGFR WT, MTT 120 hours
  EGFR TKI Sensitivity: S (EGFR TKI Sensitivity Definition: Reported IC50 < or = 1 μM)
H358 cells [4]; read-out: EGFR TKI IC50 (Nm)
  IC50: 199 nM
H358 cells [4]; erlotinib, H358, BAC, EGFR WT, MTT 120 hours
  EGFR TKI Sensitivity: S (EGFR TKI Sensitivity Definition: Reported IC50 < or = 1 μM)
H1648 cells; read-out: EGFR TKI IC50 (Nm)
  IC50: 75.8 nM
H1648 cells; erlotinib, H1648, Adeno, EGFR WT, MTT 120 hours
  EGFR TKI Sensitivity: S (EGFR TKI Sensitivity Definition: Reported IC50 < or = 1 μM)
H1299 cells; read-out: EGFR TKI IC50 (Nm)
  IC50: > 2000 nM
[5]
  cell cycle: no observable effect on cell cycle

## Cc1cn(-c2cc(NC(=O)c3ccc(C)c(Nc4nccc(-c5cccnc5)n4)c3)cc(C(F)(F)F)c2)cn1 [AMN107]
[6]
  imatinib-resistant BCR-ABL mutants against which significantly active: 32/33

## COc1cc2ncnc(Nc3ccc(F)c(Cl)c3)c2cc1OCCCN1CCOCC1 [gefitinib]
[7]; 250 nmol/L
  pSrc: decrease in pSrc
[7]; 1 μmol/L
  pSrc: incomplete
[8]
  pSTAT3: No effect
[8]; H1650 grown in 5% BCS
  PARP cleavage: degree of PARP cleavage is less
[8]; [18]
  pAkt: minimal effect on pAkt
[8]; [19]
  pAkt: inhibit pAkt
H358 cells [9]
  G1 cell cycle arrest: G1 cell cycle arrest to the same extent
  cyclins D1 and D3 and p27 protein levels: reduced cyclins D1 and D3 and increased p27 protein levels
[10]; 50 nmol/L
  pAkt: completely inhibits pAkt
[10]
  PARP cleavage: induces PARP cleavage
[11]
  pSrc: minimal changes
A549 cells [12]
  cell cycle profile: no effect
  cyclin D3 and p27 proteins: no changes
[13]
  PARP cleavage: no PARP cleavage
  pAkt or pSTAT3: neither gefitinib nor dasatinib affects
[14]; H1650, increasing concentrations, 24 hours
  pSrc: incomplete

## Cc1nc(Nc2ncc(C(=O)Nc3c(C)cccc3Cl)s2)cc(N2CCN(CCO)CC2)n1 [dasatinib, N-(2-chloro-6-methylphenyl)-2-[[6-[4-[(2-hydroxyethyl)-1-pipperazinyl]-2-methyl-4-pyrimidinyl]amino]-5-thiazolecarboxamide, monohydrate]
H441 cells [1]; read-out: Dasatinib IC50 (Nm)
  IC50: > 2000 nM
H226 cells; read-out: Dasatinib IC50 (Nm)
  IC50: 709 nM
H460 cells; read-out: Dasatinib IC50 (Nm)
  IC50: > 2000 nM
H23 cells; read-out: Dasatinib IC50 (Nm)
  IC50: > 2000 nM
H2122 cells; read-out: Dasatinib IC50 (Nm)
  IC50: 486 nM
[15]
  Cmax: 60 to 120 nM
[7]; 50 nmol/L
  pSrc: inhibits pSrc
[8]
  pSTAT3: No effect
[8]; H1650 grown in 5% BCS
  PARP cleavage: induction of PARP cleavage
[8]; [18]
  pAkt: inhibits pAkt
[8]; [19]
  pAkt: inhibit pAkt
[8]; H1650 in low serum with exogenous EGF
  degree of PARP cleavage, dasatinib versus gefitinib: degree of PARP cleavage is higher
H441 cells [2]
  effect on cell viability: no effect
[16]
  pFAK: reduction in pFAK
  pSTAT3, pAkt, or pERK: no significant reductions
H358 cells [9]
  G1 cell cycle arrest: G1 cell cycle arrest to the same extent
  cyclins D1 and D3 and p27 protein levels: reduced cyclins D1 and D3 and increased p27 protein levels
H322 cells; H322, BAC, EGFR WT, MTT 120 hours
  SRC Sensitivity: S (SRC TKI Sensitivity Definition: IC50 less than 100 nM)
H322 cells; read-out: Dasatinib IC50 (Nm)
  IC50: 11.6 nM
H157 cells; H157, Squamous, EGFR WT, MTT 120 hours
  SRC Sensitivity: S (SRC TKI Sensitivity Definition: IC50 less than 100 nM)
H157 cells; read-out: Dasatinib IC50 (Nm)
  IC50: 48.9 nM
H292 cells; H292, Squamous, EGFR WT, MTT 120 hours
  SRC Sensitivity: S (SRC TKI Sensitivity Definition: IC50 less than 100 nM)
H292 cells; read-out: Dasatinib IC50 (Nm)
  IC50: 28.4 nM
H358 cells [4]; H358, BAC, EGFR WT, MTT 120 hours
  SRC Sensitivity: S (SRC TKI Sensitivity Definition: IC50 less than 100 nM)
H358 cells [4]; read-out: Dasatinib IC50 (Nm)
  IC50: 27.4 nM
H1648 cells; H1648, Adeno, EGFR WT, MTT 120 hours
  SRC Sensitivity: S (SRC TKI Sensitivity Definition: IC50 less than 100 nM)
H1648 cells; read-out: Dasatinib IC50 (Nm)
  IC50: 20.9 nM
H1299 cells; H1299, Large Cell, EGFR WT, MTT 120 hours
  SRC Sensitivity: S (SRC TKI Sensitivity Definition: IC50 less than 100 nM)
H1299 cells; read-out: Dasatinib IC50 (Nm)
  IC50: 31.6 nM
[10]
  PARP cleavage: associated changes in PARP cleavage
[10]; increasing concentrations
  pAkt: dose-dependent inhibition of pAkt
[17]
  PARP cleavage: increase in PARP cleavage
  pAkt and pSTAT3: concentration-dependent decrease of both pAkt and pSTAT3
H1650 cells
  cell viability, dasatinib versus gefitinib: inhibited cell viability more than gefitinib
[11]
  pSrc: completely inhibits the low levels of pSrc
A549 cells [12]
  cell cycle profile: cell cycle arrest characterized by increased G1 fraction and reduced S-phase fraction
  cyclin D3 and p27 proteins: decline in cyclin D3 and an increase in p27
[13]
  PARP cleavage: no PARP cleavage
  pAkt or pSTAT3: neither gefitinib nor dasatinib affects
[14]; H1650 cells, 50 nmol/L, monohydrate
  autophosphorylation of Tyr416 on Src family members (pSrc): completely inhibits pSrc
